Data set [1] relates to retinoid signaling system (RAR or RXR). As to the kind of experiment: Use of the retinoid signaling system.
For data set [2], the system named is UV-irradiated Xenopus laevis stage 1 embryos. As to the kind of experiment: Rescue of dorsal axis formation in UV-irradiated embryos, scored by dorsal anterior index (DAI). It is filed as in vivo. On the procedure: (§1) Several hundred spawned eggs were fertilized in vitro and incubated at 16 to 18° C. […] The vegetal surfaces of some of these embryos were irradiated with one or the other sources of UV light within 10 min of fertilization for 20-30 min. […] The embryos were not disturbed, touched or tipped from the moment of fertilization, during UV irradiation or for the duration of development. […] A score of 5 defines a normal dorsal axis, 4 a microcephalic, 3 a cyclopic, 2 an anoptic, 1 an acephalic and 0 an adorsal embryo.
The biological activities of biliverdin and its derivatives were tested by adding each of them to the incubation solution of embryos after the termination of the UV light exposure to either 254 or 366 nm UV light and at selected time periods between T ƒfm=0.4-2.5. Final concentrations of biliverdin ranged from 0.05 to 5 μM in less than 1% ethanol. […] An extinction coefficient of 51,000 was utilized to calculate their concentrations. All petri dishes were covered with aluminum foil to avoid light exposure. The extent of dorsal axis formation was analyzed by the morphological criteria described above.
Stage 1 embryos were exposed to UV-light source emitting at 366 nm (Mineralight UVSL-58, Ultraviolet Products, Inc., San Gabriel, Calif.) as described and then incubated in the presence of pure candidate DCD or commercially available biliverdin (Sigma-Aldrich, St. Louis, Mo.) at final concentrations from 0.05 to 1.2 μM in less than 1% ethanol. The concentrations were calculated using a molar extinction coefficient of 51,000. One group of embryos was not exposed to UV light but was incubated in the presence of 0.5 μM of candidate DCD.

Data set [3] concerns thyroid cancer (Th) cells. As to the kind of experiment: Proliferation of thyroid carcinoma cells. It counts as cell-based, human.
Data set [4] concerns control fertilized oocytes unexposed to UV light. As to the kind of experiment: Development of control embryos unexposed to UV light incubated with the compounds (dysmorphogen test). Particulars: control fertilized oocytes unexposed to UV light incubated with the compound. How it is done: as §1
The biological activities of biliverdin and its derivatives were tested by adding each of them to the incubation solution of embryos after the termination of the UV light exposure to either 254 or 366 nm UV light and at selected time periods between T ƒfm=0.4-2.5. Final concentrations of biliverdin ranged from 0.05 to 5 μM in less than 1% ethanol. […] The extent of dorsal axis formation was analyzed by the morphological criteria described above.
Stage 1 embryos were exposed to UV-light source emitting at 366 nm (Mineralight UVSL-58, Ultraviolet Products, Inc., San Gabriel, Calif.) as described and then incubated in the presence of pure candidate DCD or commercially available biliverdin (Sigma-Aldrich, St. Louis, Mo.) at final concentrations from 0.05 to 1.2 μM in less than 1% ethanol. The concentrations were calculated using a molar extinction coefficient of 51,000. […]

Data set [5] deals with Colon Adenocarcinoma (HT 29) cells. As to the kind of experiment: Cellular triacyl glycerol (TAG) content, colon adenocarcinoma. It is filed as cell-based, human. The following applies: biliverdin 4 × 10^−7 M. How it is done: Expression of differentiation markers. Carcinoembryogenic antigen in cell supernatants collected each three days was assayed by standard ELISA determinations using an IMX assay for quantitative measurement of the antigen. Cellular triacyl glycerol content was measured spectrophotometrically by enzymatic hydrolysis and analysis of the amount of glycerol released using a standard assay, Triglyceride (INT) 10 (Sigma Diagnostics). Cellular alkaline phosphatase activity was determined by measuring the fluorescence change induced by the hydrolysis of 4-methylumbelliferylphosphate. The fluorescence is detected at 450 nm with an excitation of 365 nm, using a Jobin Ivon-Spex Fluoro Max-2 fluorimeter. The alkaline phosphatase activity detected was expressed in units of μmol/mg protein/min.

For data set [6], the system named is alkaline phosphatase activity in HT 29 cells. As to the kind of experiment: Cellular alkaline phosphatase activity of HT 29 cells. It is filed as cell-based, human. The following applies: HT 29, by day 20 of incubation. On the procedure:
Expression of differentiation markers. Carcinoembryogenic antigen in cell supernatants collected each three days was assayed by standard ELISA determinations using an IMX assay for quantitative measurement of the antigen. Cellular triacyl glycerol content was measured spectrophotometrically by enzymatic hydrolysis and analysis of the amount of glycerol released using a standard assay, Triglyceride (INT) 10 (Sigma Diagnostics). […] The fluorescence is detected at 450 nm with an excitation of 365 nm, using a Jobin Ivon-Spex Fluoro Max-2 fluorimeter. The alkaline phosphatase activity detected was expressed in units of μmol/mg protein/min. Alkaline phosphatase activity was assayed at the same periods as above but with different sets of cells. Treated and control cells were detached with trypsin and counted. One half of the cells were used to maintain the culture while the other half were used to measure alkaline phosphatase activity. […] Absorbance was detected at […] on a Varian Cary UV-Visible Spectrophotometer. The absorbance was compared against a standard curve created with bovine serum albumin from 2.5 to 25 μg/ml. […] The fluorescence generated is detected at 450 nm with an excitation of 365 nm, using a Jobin Ivon-Spex Fluoro Max-2 fluorimeter. […] The alkaline phosphatase actively detected was expressed in units of μmol product/mg protein/min.

Setting [7] is: UV exposed embryos incubated with the intact tetrapyrrole.

Structures are written as SMILES. “And” between values parts separate entries of the source, which are not always exact repeats. Identical values can stand only once.

For the compound `C=CC1=C(C)/C(=C/C2=NC(=C\c3[nH]c(/C=C4\NC(=O)C(C)=C4C=C)c(C)c3CCC(=O)O)/C(CCC(=O)O)=C2C)NC1=O` [Biliverdin, biliverdin IXα], in data set [1], the “use of the retinoid signaling system (RAR or RXR)” value is “does not use”. The “embryos scored with a DAI between 5-4” value in data set [2] (254 nm UV light, treated with biliverdin) was “About 51%”. Moreover, the “concentration at which plateau of recovery is reached” value in data set [2] (254 or 366 nm UV light, FIG. 3C) was 1.2 µM. The “recovery of dorsal axial structures” value in data set [2] (254 or 366 nm UV-irradiated embryos, μM amounts) is “recover to form dorsal axial structures”. In data set [2] (366 nm UV light, incubated with biliverdin), the “embryos that recover and are scored with 4-5” value is on record as approximately 55%. In data set [2] (setting [7]), the “embryos that do not develop dorsal structures, DAI of 0” value was 20 to 30% and the “tadpoles that develop with DAI scores of 5 or 4” value is listed as “About 55%”. Besides, the “degree of recovery of dorsal axis formation relative to oocyte biliverdin” value in data set [2] (UV-irradiated embryos, FIG. 2E) is “comparable”. The “Average DAI score” value in data set [2] (embryos irradiated with 254 nm UV light, treated with biliverdin, DAI 5 normal, 0 adorsal) was determined as 2.72. Further, the “Average DAI score” value in data set [2] (embryos irradiated with 366 nm UV light, incubated with biliverdin, total population) worked out at 3.08. Besides, in data set [3], the “division slower than control” value turned out to be 4.7 times; the “time until proliferation ceases” value is “six days and 6 days”. Moreover, the “recovery of proliferative rate” value in data set [3] (12-day observation period) was “did not recover its proliferative rate at all”. The “average DAI of control embryos” value in data set [4] is given as 5. The “% Change of TAG” value in data set [5] came to 154%. This compound also returned a TAG in data set [5] (control 68) of 105 µg/10^6 cells. Moreover, the “peak increase of alkaline phosphatase activity” value in data set [6] is given as “fifteen-fold”.

Values taken from patent publication US6902881B2, “Compounds and methods for regulating cell differentiation” (priority 2000, dated 2005).
